In EP4813403A1, “USE OF GLP-1R/GIPR DOUBLE-TARGET AGONIST IN PREPARING ANIMAL DRUG” (Hangzhou Zhongmeihuadong Pharmaceutical Co., Ltd., priority 2023, dated 2025):

How the values were obtained:
[1] = Pharmacokinetics following single administration in SD rats; details: male, Sprague-Dawley, rat, in vivo, sc
Experimental: The compound was administrated to male SD rats (230-268 g, n=3) at a dose of 50.0 nmol/kg (s.c.) or 25.0 nmol/kg (i.v.). […] 30.0 μL of thawed plasma sample was taken. 150 μL of acetonitrile solution (containing 5 ng·mL^-1 Verapamil , 50 ng·mL^-1 Glibenclamide, 200 ng·mL^-1 Tolbutamide and 200 ng·mL^-1 Diclofenac) were added to precipitate protein. The mixture was vortexed for 5 minutes, and centrifuged at 3700 rpm for 8 minutes. 70.0 μL of the supernatant was taken, into which 70.0 μL of 0.5% aqueous formic acid solution was added. The mixture was vortexed for 5 minutes. 15 μL of the mixture solution was sampled and injected into the LC-MS/MS to determine the drug concentration in plasma. 20.0 μL of thawed plasma sample was taken. 60 μL of acetonitrile solution (containing 5 ng·mL^-1 Verapamil, 50 ng·mL^-1 Glibenclamide, 200 ng·mL^-1 Tolbutamide and 200 ng·mL^-1 Diclofenac) were added to precipitate protein. […] The mixture was vortexed for 10 minutes. 10.0 μL of the mixture solution was sampled and injected into the LC-MS/MS to determine the drug concentration in plasma. 30.0 μL of thawed plasma sample was taken. 150 μL of acetonitrile solution (containing 5 ng·mL^-1 Verapamil, 50 ng·mL^-1 Glibenclamide, 200 ng·mL^-1 Tolbutamide and 200 ng·mL^-1 Diclofenac) were added to precipitate protein. The mixture was vortexed for 5 minutes, and centrifuged at 3700 rpm for 8 minutes. 70.0 μL of the supernatant was taken, into which 70.0 μL of 0.5% aqueous formic acid solution was added. The mixture was vortexed for 5 minutes. 10.0 μL of the mixture solution was sampled and injected into the LC-MS/MS to determine the drug concentration in plasma. […] Table 5 Pharmacokinetic Parameters after Subcutaneous Injection of Different Polypeptide Compounds to Rats

human GLP-1R = human GLP-1R (Homo sapiens, UniProt P43220); assay: In vitro binding activity to human GLP-1 receptor ([125I]GLP-1 displacement, crude cell membranes); parameters: expressed in transfected cells; details: ratio of the Ki value of the endogenous ligand to the Ki value of the test compound; larger ratio = stronger binding
human GLP-1R, sequence (P43220 24-463): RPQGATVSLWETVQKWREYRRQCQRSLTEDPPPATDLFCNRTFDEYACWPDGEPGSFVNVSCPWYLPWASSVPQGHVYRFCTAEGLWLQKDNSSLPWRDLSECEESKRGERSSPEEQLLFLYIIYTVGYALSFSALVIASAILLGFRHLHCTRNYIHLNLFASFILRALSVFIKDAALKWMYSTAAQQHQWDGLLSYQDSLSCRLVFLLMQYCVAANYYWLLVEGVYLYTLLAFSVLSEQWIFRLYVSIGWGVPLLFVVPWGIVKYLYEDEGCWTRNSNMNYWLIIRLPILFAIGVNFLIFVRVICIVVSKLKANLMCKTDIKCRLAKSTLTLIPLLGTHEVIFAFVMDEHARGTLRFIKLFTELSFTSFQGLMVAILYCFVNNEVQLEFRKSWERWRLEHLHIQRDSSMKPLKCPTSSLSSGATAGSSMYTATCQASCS
Experimental: (§1) 89 µL of membrane dissolved in binding buffer (50 mM Hepes, pH 7.4, 5 mM MgCl2 , 5 mM EDTA, 0.005% TWEEN, 0.005% HSA) was transferred to a 96-well test plate (5 µg/well). The compound was serially diluted in DMSO, and then, 1 µL of the diluted compound or 100% DMSO was added to the test plate containing the membrane solution. 10 µL of [^125I] […] The test plate was left at room temperature for 90 minutes. The membrane complexes were harvested into a GF/B plate pre-coated with 0.5% PEI by using a Cell Harvester, and washed for 3 times with 500 µL of pre-cooled elution buffer (50 mM Hepes, pH 7.4, 500 mM NaCl) at 4°C. After drying at 37°C for 2 hours, 50 µL of scintillation fluid was added to each well. The plate was read with a MicroBeta2 scintillation counter after sealing and settling for at least 1 hour so as to determine the membrane bound radioligand level.
The IC50 concentration was converted to Ki (Ki was the inhibition constant) using the Cheng-Prusoff equation.

db/db mice = assay: Pharmacodynamic effects in db/db mice, single subcutaneous administration (blood glucose); type: in vivo; details: single s.c. 10 nmol/kg
Experimental: In this study, 8-9 week old male db/db mice were used. The db/db mice were placed in an individual ventilated cage (IVC) facility with a controlled temperature (20-26°C) and humidity (40-70%) and a controlled 12h:12 h light-dark cycle. The mice can receive food and water ad libitum. Blood was sampled at the tail tip, and the random base blood glucose was measured by a Roche blood glucose meter. The mice were randomly divided into groups according to the random initial fasting blood glucose and initial body weight (n=6/group), and each group had similar body weight and blood glucose.
After a single subcutaneous administration, the random base blood glucoses were recorded at the set time point (0 to 120 hours, the recording of the random base blood glucose was stopped until there was no difference between the random base blood glucose of the compound and that of the vehicle group), and the daily body weight and food intake were also recorded. The data results were statistically analyzed using GraphPad Prism8, and the statistical differences among the groups were analyzed following a T-Test. Significant differences were identified at p<0.05.
Hypoglycemic Duration: the longest time during which the random base blood glucose of the compound has a significant difference (p<0.05) vs. the vehicle group. Table 13. Hypoglycemic Duration of the Compounds

human GIP Receptor = target: T1, human GIP Receptor (Homo sapiens, UniProt P48546); assay: In vitro binding activity to human GIP receptor ([125I]GIP displacement, crude cell membranes); details: ratio of the Ki value of the endogenous ligand to the Ki value of the test compound; larger ratio = stronger binding
T1 construct: expressed in transfected cells
T1 sequence (P48546 22-466): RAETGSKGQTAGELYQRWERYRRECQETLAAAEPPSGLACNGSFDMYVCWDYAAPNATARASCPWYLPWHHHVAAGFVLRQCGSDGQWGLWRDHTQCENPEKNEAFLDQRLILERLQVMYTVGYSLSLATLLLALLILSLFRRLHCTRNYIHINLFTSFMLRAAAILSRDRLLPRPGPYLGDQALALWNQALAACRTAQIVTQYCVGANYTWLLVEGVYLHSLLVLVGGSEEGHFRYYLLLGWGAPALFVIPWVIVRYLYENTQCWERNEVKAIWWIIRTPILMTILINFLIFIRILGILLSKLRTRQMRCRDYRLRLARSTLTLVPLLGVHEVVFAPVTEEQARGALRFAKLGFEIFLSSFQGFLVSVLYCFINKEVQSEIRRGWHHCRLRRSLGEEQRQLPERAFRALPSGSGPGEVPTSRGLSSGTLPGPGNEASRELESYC
Experimental: as §1
hGIP and the compound of the present invention were dissolved in DMSO and stored at -80°C. 98 µL of membrane dissolved in binding buffer (50 mM HEPES pH 7.4, 5 mM MgCl2, 1 mM CaCl2, 0.1% BSA, 0.005% Tween-20) was transferred to a 96-well test plate (15 µg/well). The compound was serially diluted in DMSO, and then, 2 µL of the diluted compounds or 100% DMSO was added to the test plate containing the membrane solution. […] The test plate was left at room temperature for 90 minutes. The membrane complexes were harvested into a GF/B plate pre-coated with 0.5% PEI by using a Cell Harvester, and washed for 3 times with 500 µL of pre-cooled elution buffer (50 mM Tris-HCl pH 7.4, 125 mM NaCl) at 4°C. After drying at 37°C for 2 hours, 50 µL of scintillation fluid was added to each well. The plate was read with a MicroBeta2 scintillation counter after sealing and settling for at least 1 hour so as to determine the membrane bound radioligand level.
The IC50 concentration was converted to Ki (Ki was the inhibition constant) using the Cheng-Prusoff equation. Table 1. Receptor Binding Affinity, Ki Ratio

[2] = Group 1, longest time with p<0.05 vs. vehicle

SMILES	Tmax [1]	half-life [1]	GLP-1R Ki ratio (human GLP-1R)	inhibition of the blood glucose AUC, times of that of P001 (db/db mice)	Hypoglycemic Duration (db/db mice; [2])	GIPR Ki ratio (human GIP Receptor)	hypoglycemic duration longer than that of Tirzepatide (db/db mice)	Hypoglycemic Duration (db/db mice; Group 2, longest time with p<0.05 vs. vehicle)
CC[C@H](C)[C@H](NC(=O)C(C)(C)NC(=O)[C@H](Cc1ccc(O)cc1)NC(=O)[C@H](CC(=O)O)NC(=O)[C@H](CO)NC(=O)[C@@H](NC(=O)C(C)(Cc1ccccc1)NC(=O)[C@@H](NC(=O)CNC(=O)[C@H](CCC(=O)O)NC(=O)C(C)(C)NC(=O)[C@@H](N)Cc1ccc(O)cc1)[C@@H](C)O)[C@@H](C)O)C(=O)NC(C)(C)C(=O)N[C@@H](CC(C)C)C(=O)N[C@@H](CC(=O)O)C(=O)N[C@@H](CCCCN)C(=O)N[C@@H](CCC(N)=O)C(=O)N[C@@H](C)C(=O)N[C@@H](CCC(N)=O)C(=O)N[C@@H](C)C(=O)N[C@@H](CCC(=O)O)C(=O)N[C@@H](Cc1ccccc1)C(=O)N[C@H](C(=O)N[C@@H](CCCCN)C(=O)N[C@@H](Cc1c[nH]c2ccccc12)C(=O)N[C@@H](CC(C)C)C(=O)N[C@@H](CC(C)C)C(=O)N[C@@H](CCCCNC(=O)COCCOCCNC(=O)COCCOCCNC(=O)COCCOCCNC(=O)CC[C@H](NC(=O)CCCCCCCCCCCCCCCCC(=O)O)C(=O)O)C(=O)NCC(=O)NCC(=O)N1CCC[C@H]1C(=O)N[C@@H](CO)C(=O)N[C@@H](CO)C(=O)NCC(=O)N[C@@H](C)C(=O)N1CCC[C@H]1C(=O)N1CCC[C@H]1C(=O)N1CCC[C@H]1C(=O)N[C@@H](CO)C(=O)N[C@@H](CCCCN)C(N)=O)C(C)C (stereo partly shown) [Compound P019]	13.3 ± 9.24 h	10.9 ± 1.92 h	0.93	2.2 times	56 h	0.09	–	–
CC[C@H](C)[C@H](NC(=O)C(C)(C)NC(=O)[C@H](Cc1ccc(O)cc1)NC(=O)[C@H](CC(=O)O)NC(=O)[C@H](CO)NC(=O)[C@@H](NC(=O)C(C)(Cc1ccccc1)NC(=O)[C@@H](NC(=O)CNC(=O)[C@H](CCC(=O)O)NC(=O)C(C)(C)NC(=O)[C@@H](N)Cc1ccc(O)cc1)[C@@H](C)O)[C@@H](C)O)C(=O)NC(C)(C)C(=O)N[C@@H](CC(C)C)C(=O)N[C@@H](CC(=O)O)C(=O)N[C@@H](CCCCN)C(=O)N[C@@H](CCC(N)=O)C(=O)N[C@@H](C)C(=O)N[C@@H](CCC(N)=O)C(=O)N[C@@H](C)C(=O)N[C@@H](CCC(=O)O)C(=O)N[C@@H](Cc1ccccc1)C(=O)N[C@H](C(=O)N[C@@H](CCCCN)C(=O)N[C@@H](Cc1c[nH]c2ccccc12)C(=O)N[C@@H](CC(C)C)C(=O)N[C@@H](CC(C)C)C(=O)N[C@@H](CCCCNC(=O)COCCOCCNC(=O)COCCOCCNC(=O)CC[C@H](NC(=O)CCCCCCCCCCCCCCCCC(=O)O)C(=O)O)C(=O)NCC(=O)NCC(=O)N1CCC[C@H]1C(=O)N[C@@H](CO)C(=O)N[C@@H](CO)C(=O)NCC(=O)N[C@@H](C)C(=O)N1CCC[C@H]1C(=O)N1CCC[C@H]1C(=O)N1CCC[C@H]1C(=O)N[C@@H](CO)C(=O)N[C@@H](CCCCN)C(N)=O)C(C)C (stereo partly shown) [Compound P008]	13.3 ± 9.24 h	18.7 ± 4.82 h	–	2.3 times	72 h	–	more than 16 hours	–
CC[C@H](C)[C@H](NC(=O)C(C)(C)NC(=O)[C@H](Cc1ccc(O)cc1)NC(=O)[C@H](CC(=O)O)NC(=O)[C@H](CO)NC(=O)[C@@H](NC(=O)C(C)(Cc1ccccc1)NC(=O)[C@@H](NC(=O)CNC(=O)[C@H](CCC(=O)O)NC(=O)C(C)(C)NC(=O)[C@@H](N)Cc1ccc(O)cc1)[C@@H](C)O)[C@@H](C)O)C(=O)NC(C)(C)C(=O)N[C@@H](CC(C)C)C(=O)N[C@@H](CC(=O)O)C(=O)N[C@@H](CCCCN)C(=O)N[C@@H](CCC(N)=O)C(=O)N[C@@H](C)C(=O)N[C@@H](CCC(N)=O)C(=O)N[C@@H](C)C(=O)N[C@@H](CCC(=O)O)C(=O)N[C@@H](Cc1ccccc1)C(=O)N[C@H](C(=O)N[C@@H](CCCCNC(=O)COCCOCCNC(=O)COCCOCCNC(=O)CC[C@H](NC(=O)CCCCCCCCCCCCCCCCC(=O)O)C(=O)O)C(=O)N[C@@H](Cc1c[nH]c2ccccc12)C(=O)N[C@@H](CC(C)C)C(=O)N[C@@H](CC(C)C)C(=O)N[C@@H](CCCCN)C(=O)NCC(=O)NCC(=O)N1CCC[C@H]1C(=O)N[C@@H](CO)C(=O)N[C@@H](CO)C(=O)NCC(=O)N[C@@H](C)C(=O)N1CCC[C@H]1C(=O)N1CCC[C@H]1C(=O)N1CCC[C@H]1C(=O)N[C@@H](CO)C(=O)N[C@@H](CCCCN)C(N)=O)C(C)C (stereo partly shown) [Compound P007]	7.33 ± 1.15 h	15 ± 2.89 h	0.47	–	56 h	–	–	–
CC[C@H](C)[C@H](NC(=O)C(C)(C)NC(=O)[C@H](Cc1ccc(O)cc1)NC(=O)[C@H](CC(=O)O)NC(=O)[C@H](CO)NC(=O)[C@@H](NC(=O)C(C)(Cc1ccccc1)NC(=O)[C@@H](NC(=O)CNC(=O)[C@H](CCC(=O)O)NC(=O)C(C)(C)NC(=O)[C@@H](N)Cc1ccc(O)cc1)[C@@H](C)O)[C@@H](C)O)C(=O)NC(C)(C)C(=O)N[C@@H](CC(C)C)C(=O)N[C@@H](CC(=O)O)C(=O)N[C@@H](CCCCN)C(=O)N[C@@H](CCC(N)=O)C(=O)N[C@@H](C)C(=O)N[C@@H](CCC(N)=O)C(=O)N[C@@H](C)C(=O)N[C@@H](CCC(=O)O)C(=O)N[C@@H](Cc1ccccc1)C(=O)N[C@H](C(=O)N[C@@H](CCCCNC(=O)COCCOCCNC(=O)COCCOCCNC(=O)CC[C@H](NC(=O)CC[C@H](NC(=O)CC[C@H](NC(=O)CCCCCCCCCCCCCCCCC(=O)O)C(=O)O)C(=O)O)C(=O)O)C(=O)N[C@@H](Cc1c[nH]c2ccccc12)C(=O)N[C@@H](CC(C)C)C(=O)N[C@@H](CC(C)C)C(=O)N[C@@H](CCCCN)C(=O)NCC(=O)NCC(=O)N1CCC[C@H]1C(=O)N[C@@H](CO)C(=O)N[C@@H](CO)C(=O)NCC(=O)N[C@@H](C)C(=O)N1CCC[C@H]1C(=O)N1CCC[C@H]1C(=O)N1CCC[C@H]1C(=O)N[C@@H](CO)C(=O)N[C@@H](CCCCN)C(N)=O)C(C)C (stereo partly shown) [Compound P015]	24 h	16.1 ± 1.21 h	0.17	–	–	–	–	32 h
